Assay results from patent publication US8470888B2, “Botryllamides and method of inhibiting PGP in a mammal afflicted with cancer” (The United States of America, as represented by the …, priority 2008, dated 2013).

How the values were obtained:
Assay type in all cases: cell-based
[1] = molecular target: ABCG2 (Homo sapiens (Human), UniProt Q9UNQ0); assay: Pheophorbide a accumulation assay for ABCG2 inhibitors in NCI-H460/MX20 cells; conditions: for IC50: 1 μM pheophorbide a, 18 h; for Pheophorbide a max activity, % of FTC response: normalized to 10 μM FTC
Sequence of ABCG2 (Q9UNQ0 whole entry): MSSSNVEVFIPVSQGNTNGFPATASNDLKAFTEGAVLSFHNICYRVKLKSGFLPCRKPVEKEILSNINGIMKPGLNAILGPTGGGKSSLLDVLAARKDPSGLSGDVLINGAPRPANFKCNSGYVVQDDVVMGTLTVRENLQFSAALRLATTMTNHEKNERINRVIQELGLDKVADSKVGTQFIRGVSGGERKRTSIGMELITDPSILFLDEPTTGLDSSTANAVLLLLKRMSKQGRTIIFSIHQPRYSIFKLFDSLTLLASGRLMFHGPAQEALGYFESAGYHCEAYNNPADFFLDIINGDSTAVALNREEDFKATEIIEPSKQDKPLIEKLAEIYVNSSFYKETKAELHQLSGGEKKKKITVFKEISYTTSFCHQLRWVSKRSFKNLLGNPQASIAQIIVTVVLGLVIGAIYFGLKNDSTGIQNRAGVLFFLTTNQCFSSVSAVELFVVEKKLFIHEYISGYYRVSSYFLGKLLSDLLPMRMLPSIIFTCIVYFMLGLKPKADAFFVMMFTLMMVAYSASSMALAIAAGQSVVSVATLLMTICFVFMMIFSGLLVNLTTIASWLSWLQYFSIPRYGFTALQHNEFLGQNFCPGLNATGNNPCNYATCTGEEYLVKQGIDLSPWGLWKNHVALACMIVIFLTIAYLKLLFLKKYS
Description: Accumulation of pheophorbide a, a fluorescent ABCG2 substrate (Jonker et al., Proc. Natl. Acad. Sci. USA, 99: 15649-54 (2002) and Robey et al., Cancer Res., 64: 1242-6 (2004)), formed the basis of the assay for inhibitors of ABCG2 activity (Henrich et al., J. Biomol. Screen, 11: 176-83 (2006)). Briefly, NCI-H460/MX20 cells are transferred to black wall, clear bottom 384-well polylysine-coated assay plates (Corning, Corning, N.Y.) and allowed to attach for several hours. Pheophorbide a (1 μM final concentration) is added immediately followed by compounds or vehicle (DMSO/PBS) control and incubated an additional 18 h. After removal of medium and washing with PBS containing Ca^2+ and Mg^2+, fluorescence intensity is read on a Tecan Safire fluorescence plate reader in bottom read mode, 395 nm excitation, and 670 nm emission. Each plate has control wells containing 10 μM (final concentration) FTC. Data are normalized to FTC and reported as % of FTC fluorescence.

[2] = molecular target: MRP1 (Homo sapiens (Human), UniProt P33527); assay: Flow assay, calcein efflux in transfected HEK293 cells expressing MRP1; conditions: 10 μM compound; 200 nM calcein AM
Sequence of MRP1 (P33527 whole entry): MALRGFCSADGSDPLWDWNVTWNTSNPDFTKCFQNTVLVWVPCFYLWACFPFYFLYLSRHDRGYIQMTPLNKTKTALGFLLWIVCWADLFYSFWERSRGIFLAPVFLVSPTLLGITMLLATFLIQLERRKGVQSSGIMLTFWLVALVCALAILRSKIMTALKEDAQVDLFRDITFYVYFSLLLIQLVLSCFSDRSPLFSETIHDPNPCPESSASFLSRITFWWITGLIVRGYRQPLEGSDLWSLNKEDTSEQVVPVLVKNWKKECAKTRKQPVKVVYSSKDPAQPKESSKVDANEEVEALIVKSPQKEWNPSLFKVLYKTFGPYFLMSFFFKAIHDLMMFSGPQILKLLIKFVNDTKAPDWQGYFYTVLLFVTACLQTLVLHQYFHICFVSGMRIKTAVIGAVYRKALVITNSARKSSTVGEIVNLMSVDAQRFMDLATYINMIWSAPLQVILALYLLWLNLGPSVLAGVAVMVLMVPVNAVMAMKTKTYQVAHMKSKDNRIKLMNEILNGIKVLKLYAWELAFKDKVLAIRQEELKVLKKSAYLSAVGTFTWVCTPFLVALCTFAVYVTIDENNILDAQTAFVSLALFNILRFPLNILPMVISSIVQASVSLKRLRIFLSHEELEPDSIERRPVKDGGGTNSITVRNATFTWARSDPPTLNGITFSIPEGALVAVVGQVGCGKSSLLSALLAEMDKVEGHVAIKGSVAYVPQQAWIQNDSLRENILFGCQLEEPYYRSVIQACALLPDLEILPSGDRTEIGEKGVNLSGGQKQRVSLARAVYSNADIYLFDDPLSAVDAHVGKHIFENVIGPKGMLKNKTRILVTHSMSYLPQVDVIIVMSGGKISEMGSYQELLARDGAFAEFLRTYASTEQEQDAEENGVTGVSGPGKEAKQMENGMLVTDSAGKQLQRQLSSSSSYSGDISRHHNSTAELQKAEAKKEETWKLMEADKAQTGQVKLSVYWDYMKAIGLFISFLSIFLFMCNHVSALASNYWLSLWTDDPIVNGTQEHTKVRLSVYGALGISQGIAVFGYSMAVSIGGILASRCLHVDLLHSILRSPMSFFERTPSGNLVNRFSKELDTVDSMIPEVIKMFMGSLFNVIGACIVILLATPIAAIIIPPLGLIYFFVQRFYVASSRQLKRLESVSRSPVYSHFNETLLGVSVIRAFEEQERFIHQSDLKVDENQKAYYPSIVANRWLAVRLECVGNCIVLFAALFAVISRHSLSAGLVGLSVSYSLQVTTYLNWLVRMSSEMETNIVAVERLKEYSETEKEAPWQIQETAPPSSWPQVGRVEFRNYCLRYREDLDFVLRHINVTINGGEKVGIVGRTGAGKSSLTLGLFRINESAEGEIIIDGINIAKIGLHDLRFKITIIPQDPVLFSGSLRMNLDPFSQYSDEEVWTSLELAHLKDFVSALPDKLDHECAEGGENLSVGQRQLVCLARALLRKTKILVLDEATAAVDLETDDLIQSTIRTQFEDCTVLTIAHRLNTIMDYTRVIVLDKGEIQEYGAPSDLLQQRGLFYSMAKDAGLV

[3] = molecular target: Pgp (Homo sapiens (Human), UniProt P08183); assay: Flow assay, rhodamine 123 efflux in transfected HEK293 cells expressing Pgp; conditions: 10 μM compound; 0.5 μg/ml rhodamine 123
Sequence of Pgp (P08183 whole entry): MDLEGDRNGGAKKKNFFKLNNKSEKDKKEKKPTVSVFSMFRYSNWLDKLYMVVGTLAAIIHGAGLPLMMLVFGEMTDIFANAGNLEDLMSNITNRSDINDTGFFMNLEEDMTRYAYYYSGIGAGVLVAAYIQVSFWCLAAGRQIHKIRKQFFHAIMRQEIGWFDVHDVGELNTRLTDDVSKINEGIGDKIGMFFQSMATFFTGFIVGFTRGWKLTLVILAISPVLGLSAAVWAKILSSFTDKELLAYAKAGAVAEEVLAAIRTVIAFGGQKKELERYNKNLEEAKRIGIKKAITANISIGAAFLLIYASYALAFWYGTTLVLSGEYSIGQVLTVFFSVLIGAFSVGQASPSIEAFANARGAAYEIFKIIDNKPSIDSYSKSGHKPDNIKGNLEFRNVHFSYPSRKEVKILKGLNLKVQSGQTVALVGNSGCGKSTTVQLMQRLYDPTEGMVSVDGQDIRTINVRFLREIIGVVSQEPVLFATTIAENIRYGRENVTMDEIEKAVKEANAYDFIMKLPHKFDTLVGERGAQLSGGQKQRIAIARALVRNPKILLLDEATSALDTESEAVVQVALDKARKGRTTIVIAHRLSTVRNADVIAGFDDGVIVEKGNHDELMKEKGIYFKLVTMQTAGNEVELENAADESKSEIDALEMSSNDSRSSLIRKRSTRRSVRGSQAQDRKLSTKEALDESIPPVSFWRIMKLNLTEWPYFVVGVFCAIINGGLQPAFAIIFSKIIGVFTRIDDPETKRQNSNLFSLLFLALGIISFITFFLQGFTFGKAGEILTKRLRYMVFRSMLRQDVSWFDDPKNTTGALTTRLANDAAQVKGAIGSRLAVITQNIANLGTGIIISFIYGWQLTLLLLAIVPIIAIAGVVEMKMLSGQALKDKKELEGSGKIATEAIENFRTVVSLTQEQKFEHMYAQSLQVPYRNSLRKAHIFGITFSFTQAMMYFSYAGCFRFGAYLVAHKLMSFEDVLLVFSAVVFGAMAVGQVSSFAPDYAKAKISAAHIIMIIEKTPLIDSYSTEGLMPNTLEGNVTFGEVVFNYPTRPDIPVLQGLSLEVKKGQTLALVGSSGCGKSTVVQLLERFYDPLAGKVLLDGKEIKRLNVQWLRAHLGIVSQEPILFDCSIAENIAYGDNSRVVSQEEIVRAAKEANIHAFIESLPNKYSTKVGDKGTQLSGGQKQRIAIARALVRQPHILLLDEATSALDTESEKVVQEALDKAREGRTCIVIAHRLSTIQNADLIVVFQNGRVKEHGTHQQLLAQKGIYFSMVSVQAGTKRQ

| Compound | IC50 [1] [µM] | Pheophorbide a max activity, % of FTC response ([1]; 80 μM compound) [%] | Flow-MRP1, Fold Increase (MRP1 inhibition, calcein efflux: treated/control ratio) [2] [fold] | Flow-Pgp, Fold Increase (Pgp inhibition, rhodamine efflux: treated/control ratio) [3] [fold] | Pheophorbide a max activity, % of FTC response ([1]; 40 μM compound) |
| --- | --- | --- | --- | --- | --- |
| CO/C(=C\c1ccc(O)cc1)C(=O)N/C=C/c1cc(Br)c(OC)c(Br)c1 [Botryllamide A, botryllamide A] | 33 | 89.7 | 4.5 | 17.63 | – |
| CO/C(=C\c1ccc(O)cc1)C(=O)N/C=C/c1ccc(OC)c(Br)c1 [Botryllamide D, botryllamide D] | 16.4 | 63.5 | 2.39 | 1.49 | – |
| CO/C(=C\c1ccc(O)cc1)C(=O)N/C=C/c1ccc(OC)cc1 [Botryllamide E, botryllamide E] | 23.3 | 68.8 | 1.96 | 0.76 | – |
| CO/C(=C\c1ccc(O)cc1)C(=O)N/C=C/c1ccc(O)cc1 [Botryllamide F, botryllamide F] | 16.7 | 81.0 | 3.33 | 0.59 | – |
| CO/C(=C\c1ccc(O)cc1)C(=O)N/C=C/c1cc(Br)c(O)c(Br)c1 [Botryllamide G, botryllamide G] | 6.9 | – | 2.1 | 0.68 | 123.7 (40 μM) % |
| CO/C(=C\c1ccc(O)cc1)C(=O)N/C=C/c1ccc(OC)cc1 [Botryllamide I, botryllamide I] | 41.4 | 71.3 | 3.14 | 0.8 | – |
| botryllamide B | 11.2 | – | 3.26 | 1.95 | 84.3 (40 μM) % |
| botryllamide J | 26.9 | 70.5 | 2.54 | 0.58 | – |
